This note sets out measurements from patent US7115609B2, “Alanyl-piperidine heterocyclic derivatives useful against cardiovascular diseases” (Eli Lilly and Company, priority 2001, dated 2006).

Each structure is given as a SMILES string.

Turning to `CN1CCC(C2CCN(C(=O)[C@@H](Cc3cccnc3)NC(=O)c3ccc4cc[nH]c4c3)CC2)CC1.Cl`, the melting point was 177 to 182 °C (dec.).

As for `CN1CCC(C2CCN(C(=O)[C@@H](Cc3ccncc3)NC(=O)c3ccc4cc[nH]c4c3)CC2)CC1.Cl`, the melting point was 183 to 186 °C (dec.).

Turning to `CN1CCC(C2CCN(C(=O)[C@@H](Cc3ccccn3)NC(=O)c3ccc4cc[nH]c4c3)CC2)CC1.Cl`, the melting point is 175 to 179 °C (dec.). On to `CN1CCC(C2CCN(C(=O)[C@@H](Cc3cn(C)cn3)NC(=O)c3ccc4cc[nH]c4c3)CC2)CC1.Cl`, for which the melting point is 179 to 185 °C (dec.). As to `CN1CCC(C2CCN(C(=O)[C@@H](CC3CCCCC3)NC(=O)c3ccc4cc[nH]c4c3)CC2)CC1.Cl`, the melting point was 162 to 172 °C (dec.). In the case of `CN1CCC(C2CCN(C(=O)[C@H](CC3CCOCC3)NC(=O)c3ccc4cc[nH]c4c3)CC2)CC1.Cl` it was 162 to 178 °C (dec.). Next, `CN1CCC(N2CCN(C(=O)[C@@H](Cc3ccncc3)NC(=O)c3ccc4cc[nH]c4c3)CC2)CC1.Cl`: 228 to 235 °C (dec.). For the compound `CN1CCC(N2CCN(C(=O)[C@@H](Cc3ccncc3)NC(=O)c3cc4ccc(Cl)cc4s3)CC2)CC1.Cl`, the melting point was 213 to 217 °C (dec.).

Regarding `CN1CCC(N2CCN(C(=O)[C@@H](Cc3ccncc3)NC(=O)c3cc4cc(Cl)ccc4[nH]3)CC2)CC1.Cl`, the melting point was 238 to 242 °C (dec.).

Take `CN1CCC(N2CCN(C(=O)[C@@H](Cc3ccccn3)NC(=O)c3cc4ccc(Cl)cc4s3)CC2)CC1.Cl`: the melting point is 219 to 223 °C (dec.). For the compound `CN1CCC(N2CCN(C(=O)[C@@H](Cc3ccccn3)NC(=O)c3ccc4cc[nH]c4c3)CC2)CC1.Cl`, the melting point is 232 to 235 °C (dec.). In the case of `CN1CCC(N2CCN(C(=O)[C@@H](Cc3ccccn3)NC(=O)c3cc4cc(Cl)ccc4[nH]3)CC2)CC1.Cl` it was 210 to 214 °C (dec.). `CN1CCC(N2CCN(C(=O)[C@@H](CCC(=O)O)NC(=O)c3ccc4cc[nH]c4c3)CC2)CC1.Cl`: the melting point was 215 to 218 °C (dec.). Regarding `CN1CCC(N2CCN(C(=O)[C@@H](CCC(=O)O)NC(=O)c3cc4ccc(Cl)cc4s3)CC2)CC1.Cl`, the melting point is 185 to 190 °C (dec.). For `CN1CCC(N2CCN(C(=O)[C@@H](CCC(=O)O)NC(=O)c3cc4cc(Cl)ccc4[nH]3)CC2)CC1.Cl`, the melting point is 222 to 225 °C (dec.). With `CN1CCC(C[C@@H](NC(=O)c2cc3ccc(Cl)cc3s2)C(=O)N2CCN(C3CCN(C)CC3)CC2)CC1.Cl`, the melting point is 220 to 223 °C (dec.). As for `CN1CCC(C[C@@H](NC(=O)c2ccc3cc[nH]c3c2)C(=O)N2CCN(C3CCN(C)CC3)CC2)CC1.Cl`, the melting point was 190 to 193 °C (dec.). As to `CN1CCC(C[C@@H](NC(=O)c2cc3cc(Cl)ccc3[nH]2)C(=O)N2CCN(C3CCN(C)CC3)CC2)CC1.Cl`, the melting point is 205 to 210 °C (dec.). `CN1CCC(N2CCN(C(=O)[C@@H](CC(N)=O)NC(=O)c3ccc4cc[nH]c4c3)CC2)CC1.Cl`: the melting point is 215 to 219 °C (dec.). Next, `CN1CCC(N2CCN(C(=O)[C@@H](CC(N)=O)NC(=O)c3cc4ccc(Cl)cc4s3)CC2)CC1.Cl`: 219 to 223 °C (dec.); `CN1CCC(N2CCN(C(=O)[C@@H](CC(N)=O)NC(=O)c3cc4cc(Cl)ccc4[nH]3)CC2)CC1.Cl`: 235 to 240 °C (dec.).

Broadly, the melting point is the temperature of the solid-liquid transition.
